In the SangsterLogP compilation one finds logD data, which are given here for nine compounds.

One data set in a line: method code SF-HPLC, from Li, N. Y., Li, Y., & Gorrod, J. W. (1992). Determination of partition coefficients and ionisation constants of(S)(-)-nicotine and certain metabolites. Med. Sci. Res., 20(23)901-902. The following applies: pH 2.0.
As for `O=C(O)CCC(=O)c1cccnc1`, the pH-dependent lipophilicity (logD) (commonly the decadic logarithm of the distribution of all forms, ionised or not, between an organic phase and buffer at a given pH) was -1.06.
Same read-out and setting: the result for `O=C(O)Cc1cccnc1` reads -2.42.

The data set is the same for the next values; noted with them: pH 7.4.
For the compound `CN1C(=O)C(O)CC1c1cccnc1` (centres undefined), the logD is -1.22.
Still for that read-out and setting: under `CN1C(=O)CCC1c1ccc[n+]([O-])c1` (centres undefined) stands -2.54; under `CNC(=O)CCC(=O)c1cccnc1`, -0.13.
As for `CN1C(=O)CC[C@H]1c1cccnc1`, the log distribution coefficient (logD) was 0.07.

The same data set, now with this note: pH 12.0.
Consider `O=C1CCC(c2ccc[n+]([O-])c2)N1` (centres undefined), for which the logD is -1.01.
On the same count and under the same terms, the result for `O=C1CC[C@@H](c2cccnc2)N1` reads -0.4; that for `CN1C(=O)CCC1(O)c1cccnc1` (centres undefined), -0.57.
